{
  "source": "patent US20110190192A1",
  "about": "“METHODS FOR TREATING ERECTILE DYSFUNCTION IN PATIENTS WITH INSULIN-DEPENDENT DIABETES” (Cebix Inc., priority 2009, published 2011)",
  "key": {"[1]": {"tested_on": "type 1 diabetes patients with peripheral neuropathy", "experiment": "ECG and vital signs", "assay_type": "in vivo, human", "settings": "for BPd (diastolic blood pressure) change, mean ± SD / BPd (diastolic blood pressure) change, median / BPs (systolic blood pressure) change, mean ± SD / BPs (systolic blood pressure) change, median / Heart rate change, mean ± SD / Heart rate change, median / QTc-interval Bazett change, mean ± SD / QTc-interval Bazett change, median / QTc-interval Fredericia change, mean ± SD / QTc-interval Fredericia change, median: baseline to 6 months (visit 4), PP data set", "protocol": "ECG was performed at baseline and at end of study, i.e., visit 4 (at 6 months±2 weeks from the S/B visit)."}, "[2]": {"tested_on": "type 1 diabetes patients with peripheral neuropathy", "settings": "in vivo", "excerpt": "(§1) The safety measurements comprised collection of AEs, spontaneously reported by the patient or recorded by the investigator at each clinical visit.\n(§2) An AE was classified as “unexpected event” (i.e., if not specifically listed in the Investigator's Brochure) in terms of nature, severity, or frequency. All AEs, including intercurrent illnesses and increased severity or frequency of sign/symptoms of a concomitant disease was reported and documented as described below. AEs were documented on an “Adverse Event/Serious Adverse Event” page of the CRF and in the patient's medical records. Any AE occurring at any time after the end of the study, considered to be caused by the study medication—and therefore a possible adverse drug reaction—was reported to the sponsor.\n(§3) Hypoglycemic events are common events in insulin-treated patients. For practical reasons only severe hypoglycemic events, i.e., if the patient required assistance from another person in order to regain normoglycaemia, were reported as an AE.\n(§4) The period of observation for AEs extended from the time the patient started on trial medication until end of the study. AEs were divided into the categories “serious” and “non-serious”. This determined the procedure used to report/document the AE.\n(§5) Descriptive statistics were used for safety variables. […] The safety analysis set included all patients who obtained at least one dose of the investigational drug. AEs were coded according to the MedDRA dictionary. The frequencies of AEs are tabulated by body system and included/preferred term."}, "[3]": {"tested_on": "type 1 diabetes patients with peripheral neuropathy", "experiment": "Adverse events", "excerpt": "as §1, §2, §3, §4, §5"}, "[4]": {"experiment": "C-peptide concentrations in plasma (time-resolved fluoroimmunoassay)", "settings": "dose ranges of the study; very small patient number", "description": "Blood samples for determination of C-peptide in plasma were drawn at the S/B visit, visit 2, and at end of study (visit 4).\nThe sampling of C-peptide in plasma at visits 2 and 4 coincided with the clinical visit and the time between the most recent administration of the trial drug and sampling varied between patients.\nC-peptide plasma levels were measured at baseline, and after 3 and 6 months of treatment. Analysis was performed by the Department of Clinical Chemistry Karolinska University Hospital, Solna using a time-resolved fluoroimmunoassay (AutoDelfia, Wallac Oy, Turku, Finland).\nC-peptide plasma levels were also measured pre-dosing in the morning in 22 randomly selected patients at the Karolinska Hospital after 4.5 months of study treatment (visit 3)."}, "[5]": {"settings": "high-dose C-peptide, treatment emergent, any severity, PP data set"}, "[6]": {"settings": "low-dose C-peptide, treatment emergent, any severity, PP data set"}},
  "data": [
    {"smiles": "CC(C)C[C@H](NC(=O)[C@H](C)NC(=O)[C@H](CC(C)C)NC(=O)[C@@H]1CCCN1C(=O)[C@H](CCC(N)=O)NC(=O)[C@H](CC(C)C)NC(=O)[C@H](CO)NC(=O)CNC(=O)[C@H](C)NC(=O)CNC(=O)[C@@H]1CCCN1C(=O)CNC(=O)CNC(=O)CNC(=O)[C@H](CC(C)C)NC(=O)[C@H](CCC(=O)O)NC(=O)[C@@H](NC(=O)[C@H](CCC(N)=O)NC(=O)CNC(=O)[C@@H](NC(=O)[C@H](CCC(N)=O)NC(=O)[C@H](CC(C)C)NC(=O)[C@H](CC(=O)O)NC(=O)[C@H](CCC(=O)O)NC(=O)[C@H](C)NC(=O)[C@@H](N)CCC(=O)O)C(C)C)C(C)C)C(=O)N[C@@H](CCC(=O)O)C(=O)NCC(=O)N[C@@H](CO)C(=O)N[C@@H](CC(C)C)C(=O)N[C@@H](CCC(N)=O)C(=O)O", "note": "[C-peptide, Recombinant human C-peptide]", "values": [
      {"measurement": "Decrease in systolic blood pressure, high-dose vs low-dose group", "setting": "[1]; 6 months, p<0.004, not statistically different from placebo", "result": "significantly greater decrease"},
      {"measurement": "BPd (diastolic blood pressure) change, mean ± SD", "setting": "[1]; high-dose C-peptide", "result": "−2.6 ± 8.0", "unit": "mmHg"},
      {"measurement": "BPd (diastolic blood pressure) change, median", "setting": "[1]; high-dose C-peptide", "result": "−1.0", "unit": "mmHg"},
      {"measurement": "BPs (systolic blood pressure) change, mean ± SD", "setting": "[1]; high-dose C-peptide", "result": "−8.8 ± 10.0", "unit": "mmHg"},
      {"measurement": "BPs (systolic blood pressure) change, median", "setting": "[1]; high-dose C-peptide", "result": "−8.0", "unit": "mmHg"},
      {"measurement": "Heart rate change, mean ± SD", "setting": "[1]; high-dose C-peptide", "result": "−3.2 ± 10.0", "unit": "bpm"},
      {"measurement": "Heart rate change, median", "setting": "[1]; high-dose C-peptide", "result": "−4.0", "unit": "bpm"},
      {"measurement": "QTc-interval Bazett change, mean ± SD", "setting": "[1]; high-dose C-peptide", "result": "-4.5 ± 20.3", "unit": "ms"},
      {"measurement": "QTc-interval Bazett change, median", "setting": "[1]; high-dose C-peptide", "result": 0.0, "unit": "ms"},
      {"measurement": "QTc-interval Fredericia change, mean ± SD", "setting": "[1]; high-dose C-peptide", "result": "-0.5 ± 16.2", "unit": "ms"},
      {"measurement": "QTc-interval Fredericia change, median", "setting": "[1]; high-dose C-peptide", "result": 0.0, "unit": "ms"},
      {"measurement": "BPd (diastolic blood pressure) change, mean ± SD", "setting": "[1]; low-dose C-peptide", "result": "−2.7 ± 8.2", "unit": "mmHg"},
      {"measurement": "BPd (diastolic blood pressure) change, median", "setting": "[1]; low-dose C-peptide", "result": "−1.0", "unit": "mmHg"},
      {"measurement": "BPs (systolic blood pressure) change, mean ± SD", "setting": "[1]; low-dose C-peptide", "result": "−2.1 ± 12.8", "unit": "mmHg"},
      {"measurement": "BPs (systolic blood pressure) change, median", "setting": "[1]; low-dose C-peptide", "result": "−1.0", "unit": "mmHg"},
      {"measurement": "Heart rate change, mean ± SD", "setting": "[1]; low-dose C-peptide", "result": "−0.9 ± 8.2", "unit": "bpm"},
      {"measurement": "Heart rate change, median", "setting": "[1]; low-dose C-peptide", "result": "−2.0", "unit": "bpm"},
      {"measurement": "QTc-interval Bazett change, mean ± SD", "setting": "[1]; low-dose C-peptide", "result": "-0.1 ± 17.5", "unit": "ms"},
      {"measurement": "QTc-interval Bazett change, median", "setting": "[1]; low-dose C-peptide", "result": 0.0, "unit": "ms"},
      {"measurement": "QTc-interval Fredericia change, mean ± SD", "setting": "[1]; low-dose C-peptide", "result": "0.9 ± 14.1", "unit": "ms"},
      {"measurement": "QTc-interval Fredericia change, median", "setting": "[1]; low-dose C-peptide", "result": 1.3, "unit": "ms"},
      {"measurement": "Acute HIV infection, AE intensity (number of AE incidences)", "setting": "[2]", "result": "M (1)"},
      {"measurement": "Herpes zoster, AE intensity (number of AE incidences)", "setting": "[2]", "result": "M (1)"},
      {"measurement": "Adverse drug reactions or significant changes in safety variables (blood chemistries and vital signs)", "setting": "[3]; 500-1,500 nmoL/24 h, 6 months", "result": "no adverse drug reactions or significant changes in safety variables"},
      {"measurement": "Local reactions", "setting": "[3]; S.C. injection, 6 months", "result": "No local reactions were reported"},
      {"measurement": "Deaths during the study", "setting": "[3]; all groups", "result": "No deaths"},
      {"measurement": "Serious adverse events (SAEs)", "setting": "[3]; high-dose C-peptide (1,500 nmoL/24 h)", "result": "Two"},
      {"measurement": "Relationship of the SAEs to the trial medication", "setting": "[3]; high-dose C-peptide, investigators' assessment", "result": "unlikely/not related"},
      {"measurement": "Dizziness (SOC Injury poisoning, procedural complications), number of AEs", "setting": "[3]; [5]", "result": 1},
      {"measurement": "Hyperaesthesia, number of AEs", "setting": "[3]; [5]", "result": 1},
      {"measurement": "Hyperaesthesia, number of AEs probably/possibly related to study drug", "setting": "[3]; [5]", "result": "(1)"},
      {"measurement": "Hypoglycemia, number of AEs probably/possibly related to study drug", "setting": "[3]; [5]", "result": "(1)"},
      {"measurement": "Injection site burning, number of AEs", "setting": "[3]; [5]", "result": 1},
      {"measurement": "Injection site burning, number of AEs probably/possibly related to study drug", "setting": "[3]; [5]", "result": "(1)"},
      {"measurement": "Pain in extremity (SOC Musculoskeletal and connective tissue disorder), number of AEs", "setting": "[3]; [5]", "result": 4},
      {"measurement": "Paraesthesia, number of AEs probably/possibly related to study drug", "setting": "[3]; [5]", "result": "(2)"},
      {"measurement": "Skin infection (SOC Infections and infestations), number of AEs", "setting": "[3]; [5]", "result": 1},
      {"measurement": "Skin infection (SOC Skin and subcutaneous tissue disorders), number of AEs", "setting": "[3]; [5]", "result": 2},
      {"measurement": "Tendosynovitis stenosans, number of AEs", "setting": "[3]; [5]", "result": 1},
      {"measurement": "Total number of AEs", "setting": "[3]; [5]", "result": 156},
      {"measurement": "Total number of AEs probably/possibly related to study drug", "setting": "[3]; [5]", "result": "(5)"},
      {"measurement": "AEs of moderate intensity", "setting": "[3]; high-dose group", "result": 43, "unit": "AEs"},
      {"measurement": "AEs of severe intensity", "setting": "[3]; high-dose group", "result": 9, "unit": "AEs"},
      {"measurement": "AEs reported as possible/probable related to the study drug", "setting": "[3]; high-dose group", "result": 5, "unit": "AEs"},
      {"measurement": "Number of AEs reported", "setting": "[3]; high-dose group, n=52, ITT", "result": 154, "unit": "AEs"},
      {"measurement": "Patients with AEs", "setting": "[3]; high-dose group, out of 52", "result": 44, "unit": "patients"},
      {"measurement": "Cardiac arrhythmia (SVES), number of AEs", "setting": "[3]; [6]", "result": 1},
      {"measurement": "Dizziness (SOC Nervous system disorders), number of AEs", "setting": "[3]; [6]", "result": 2},
      {"measurement": "Elevated serum creatinine, number of AEs", "setting": "[3]; [6]", "result": 1},
      {"measurement": "Hepatic enzyme increase, number of AEs probably/possibly related to study drug", "setting": "[3]; [6]", "result": "(1)"},
      {"measurement": "Hyperglycemia, number of AEs probably/possibly related to study drug", "setting": "[3]; [6]", "result": "(1)"},
      {"measurement": "Hyperthermeasthesia, number of AEs", "setting": "[3]; [6]", "result": 2},
      {"measurement": "Hyperthermeasthesia, number of AEs probably/possibly related to study drug", "setting": "[3]; [6]", "result": "(2)"},
      {"measurement": "Hypoglycemia, number of AEs probably/possibly related to study drug", "setting": "[3]; [6]", "result": "(1)"},
      {"measurement": "Insulin sensitivity increased, number of AEs", "setting": "[3]; [6]", "result": 1},
      {"measurement": "Insulin sensitivity increased, number of AEs probably/possibly related to study drug", "setting": "[3]; [6]", "result": "(1)"},
      {"measurement": "Musculoskeletal chest pain, number of AEs", "setting": "[3]; [6]", "result": 1},
      {"measurement": "Pain in extremity (SOC Musculoskeletal and connective tissue disorder), number of AEs", "setting": "[3]; [6]", "result": 3},
      {"measurement": "Pain in extremity (SOC Musculoskeletal and connective tissue disorder), number of AEs probably/possibly related to study drug", "setting": "[3]; [6]", "result": "(1)"},
      {"measurement": "Paraesthesia, number of AEs probably/possibly related to study drug", "setting": "[3]; [6]", "result": "(1)"},
      {"measurement": "Skin infection (SOC Infections and infestations), number of AEs", "setting": "[3]; [6]", "result": 5},
      {"measurement": "Tachycardia (stress related), number of AEs", "setting": "[3]; [6]", "result": 1},
      {"measurement": "Total number of AEs", "setting": "[3]; [6]", "result": 173},
      {"measurement": "Total number of AEs probably/possibly related to study drug", "setting": "[3]; [6]", "result": "(8)"},
      {"measurement": "AEs of moderate intensity", "setting": "[3]; low-dose group", "result": 51, "unit": "AEs"},
      {"measurement": "AEs of severe intensity", "setting": "[3]; low-dose group", "result": 1, "unit": "AEs"},
      {"measurement": "AEs reported as possible/probable related to the study drug", "setting": "[3]; low-dose group", "result": 8, "unit": "AEs"},
      {"measurement": "Number of AEs reported", "setting": "[3]; low-dose group, n=56, ITT", "result": 173, "unit": "AEs"},
      {"measurement": "Patients with AEs", "setting": "[3]; low-dose group, out of 56", "result": 48, "unit": "patients"},
      {"measurement": "Accumulation following repeated dosing", "setting": "[4]", "result": "no significant accumulation"}
    ]}
  ]
}
